biological target: Endothelial lipase (EL) (Homo sapiens (Human), UniProt Q9Y5X9); assay: Endothelial lipase (EL) enzymatic assay with fluorescent substrate A10070 in DMPG vesicles; format: biochemical; conditions: not given
How it was run: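 Compounds were preincubated with enzyme for 30 min at 37° C before FRET-substrate vesicles (A10070 in DMPG, 0.11 mole fraction) were added. Reaction rates were obtained from the 300–900 sec slope of fluorescence at 490/530 nm.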

Endothelial lipase (EL), sequence (Q9Y5X9 21-500): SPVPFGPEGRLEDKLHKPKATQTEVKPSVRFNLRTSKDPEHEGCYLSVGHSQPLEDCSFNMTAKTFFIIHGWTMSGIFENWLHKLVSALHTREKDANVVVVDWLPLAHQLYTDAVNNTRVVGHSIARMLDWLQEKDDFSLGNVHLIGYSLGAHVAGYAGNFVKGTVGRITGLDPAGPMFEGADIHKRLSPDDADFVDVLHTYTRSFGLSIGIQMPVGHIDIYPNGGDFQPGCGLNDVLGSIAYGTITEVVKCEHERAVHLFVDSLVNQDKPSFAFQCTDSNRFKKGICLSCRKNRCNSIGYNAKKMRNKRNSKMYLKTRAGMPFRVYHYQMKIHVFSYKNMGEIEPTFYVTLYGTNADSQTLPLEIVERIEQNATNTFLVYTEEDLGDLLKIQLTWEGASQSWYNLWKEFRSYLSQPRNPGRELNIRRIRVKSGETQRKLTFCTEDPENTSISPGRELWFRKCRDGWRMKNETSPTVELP

IC50 [nM]	SMILES
10	O=C(CNC(=O)C(c1nc2ccc(-c3ccc(C(=O)N4CCOCC4)cc3)cc2s1)S(=O)(=O)c1ccc(F)cc1)NC1CC1 (stereo not shown) [Example 448, N-[(cyclopropyl-carbamoyl)methyl]-2-(4-fluorobenzene-sulfonyl)-2-{6-[4-(morpholine-4-carbonyl)phenyl]-1,3-benzothiazol-2-yl}acetamide]
23	Cc1ncc(-c2cc(F)c3nc(C(C(=O)NCC(=O)NC4CC4)S(=O)(=O)c4ccc(F)cc4)sc3c2)cn1 (stereo not shown) [Example 471, N-[(cyclopropyl-carbamoyl)methyl]-2-[4-fluoro-6-(2-methylpyrimidin-5-yl)-1,3-benzothiazol-2-yl]-2-(4-fluorobenzene-sulfonyl)acetamide]
150	COCCNC(=O)CNC(=O)C(c1nc2ccc(-c3ccc(F)nc3)cc2s1)S(=O)(=O)c1ccc(F)cc1 (stereo not shown) [Example 461, 2-(4-fluorobenzene-sulfonyl)-2-[6-(6-fluoropyridin-3-yl)-1,3-benzothiazol-2-yl]-N-{[(2-methoxyethyl)carbamoyl]methyl} acetamide]
1	CS(=O)(=O)C(C(=O)NCC(=O)NC1CC1)c1nc2cc(F)c(-c3ccc(NC(=O)OCc4ccccc4)nc3)cc2s1 (stereo not shown) [Example 552, benzyl N-{5-[2-({[(cyclopropyl-carbamoyl)methyl]carbamoyl} (methanesulfonyl)methyl)-5-fluoro-1,3-benzothiazol-6-yl]pyridin-2-yl}carbamate]
1	O=C(CNC(=O)C(c1nc2cc(F)c(-c3ccc(NC(=O)NCc4ccccc4)cc3)cc2s1)S(=O)(=O)CCC(F)(F)F)NC1CC1 (stereo not shown) [Example 511, 2-(6-{4-[(benzyl-carbamoyl)amino]phenyl}-5-fluoro-1,3-benzothiazol-2-yl)-N-[(cyclopropyl-carbamoyl)methyl]-2-(3,3,3-trifluoropropane-sulfonyl)acetamide]
2	CS(=O)(=O)C(C(=O)NCC(=O)NC1CC1)c1nc2cc(F)c(-c3ccccc3)cc2s1 (stereo not shown) [Example 609, N-[(cyclopropyl-carbamoyl)methyl]-2-(5-fluoro-6-phenyl-1,3-benzothiazol-2-yl)-2-methanesulfonyl-acetamide]
157	CC(C)OCCNC(=O)CNC(=O)C(c1nc2cc(F)cc(-c3cnc(C4CC4)nc3)c2s1)S(=O)(=O)c1ccc(F)cc1 (stereo not shown) [Example 466, 2-[7-(2-cyclopropyl-pyrimidin-5-yl)-5-fluoro-1,3-benzothiazol-2-yl]-2-(4-fluorobenzene-sulfonyl)-N-({[2-(propan-2-yloxy)ethyl]carbamoyl}methyl)acetamide]
5	O=C(CNC(=O)C(c1nc2cc(F)c(-c3ccc(=O)n(Cc4ccccc4)c3)cc2s1)S(=O)(=O)CCC(F)(F)F)NC1CC1 (stereo not shown) [Example 592, 2-[6-(1-benzyl-6-oxo-1,6-dihydropyridin-3-yl)-5-fluoro-1,3-benzothiazol-2-yl]-N-[(cyclopropyl-carbamoyl)methyl]-2-(3,3,3-trifluoropropane-sulfonyl)acetamide]
48	Cn1ccc(-c2ccc3sc(C(C(=O)NCC(=O)NC4CC4)S(=O)(=O)c4ccccc4)nc3c2)cc1=O (stereo not shown) [Example 439, 2-(benzenesulfonyl)-N-[(cyclopropyl-carbamoyl)methyl]-2-[5-(1-methyl-2-oxo-1,2-dihydropyridin-4-yl)-1,3-benzothiazol-2-yl]acetamide]

More lines, now with the values behind:

SMILES	IC50 [nM]
COCCS(=O)(=O)C(C(=O)NCC(=O)NC1CC1)c1nc2cc(-c3cnnc(C)c3)c(F)cc2s1 (stereo not shown) [Example 351, N-[(cyclopropyl-carbamoyl)methyl]-2-[6-fluoro-5-(6-methylpyridazin-4-yl)-1,3-benzothiazol-2-yl]-2-(2-methoxyethane-sulfonyl)acetamide]	36
COCCS(=O)(=O)C(C(=O)NCC(=O)NC1CC1)c1nc2cc(-c3cccc(C(=O)NCC(F)(F)F)c3)ccc2s1 (stereo not shown) [Example 394, 3-[2-({[(cyclopropyl-carbamoyl)methyl]carbamoyl}(2-methoxyethane-sulfonyl)methyl)-1,3-benzothiazol-5-yl]-N-(2,2,2-trifluoroethyl) benzamide]	4
COc1ncccc1-c1cc2sc(C(C(=O)NCC(=O)NC3CC3)S(C)(=O)=O)nc2cc1F (stereo not shown) [Example 322, N-[(cyclopropyl-carbamoyl)methyl]-2-[5-fluoro-6-(2-methoxypyridin-3-yl)-1,3-benzothiazol-2-yl]-2-methanesulfonyl-acetamide]	5
CS(=O)(=O)C(C(=O)NCC(=O)NC1CC1)c1nc2cc(F)c(-c3ccc(-n4cccn4)cc3)cc2s1 (stereo not shown) [Example 375, N-[(cyclopropyl-carbamoyl)methyl]-2-{5-fluoro-6-[4-(1H-pyrazol-1-yl)phenyl]-1,3-benzothiazol-2-yl}-2-methanesulfonyl-acetamide]	2
COCCNC(=O)CNC(=O)C(c1nc2cc(-c3ccc(F)nc3)ccc2s1)S(=O)(=O)CCOC (stereo not shown) [Example 390, 2-[5-(6-fluoropyridin-3-yl)-1,3-benzothiazol-2-yl]-2-(2-methoxyethane-sulfonyl)-N-{[(2-methoxyethyl)carbamoyl]methyl} acetamide]	102
COCCS(=O)(=O)C(C(=O)NCC(=O)NC1CC1)c1nc2ccc(-c3ccc(-c4ncco4)cc3)cc2s1 (stereo not shown) [Example 93, N-[(cyclopropyl-carbamoyl)methyl]-2-(2-methoxyethane-sulfonyl)-2-{6[4-(1,3-oxazol-2-yl)phenyl]-1,3-benzothiazol-2-yl} acetamide]	1
COCCS(=O)(=O)C(C(=O)NCC(=O)NC1CC1)c1nc2c(F)cc(-c3cnc(C4CC4)nc3)cc2s1 (stereo not shown) [Example 223, N-[(cyclopropyl-carbamoyl)methyl]-2-[6-(2-cyclopropyl-pyrimidin-5-yl)-4-fluoro-1,3-benzothiazol-2-yl]-2-(2-methoxyethane-sulfonyl) acetamide]	80
CC(C)S(=O)(=O)C(C(=O)NCC(=O)NC1CC1)c1nc2cc(F)c(-c3ccc(C#N)nc3)cc2s1 (stereo not shown) [Example 249, 2-[6-(6-cyanopyridin-3-yl)-5-fluoro-1,3-benzothiazol-2-yl]-N-[(cyclopropyl-carbamoyl)methyl]-2-(propane-2-sulfonyl)acetamide]	29
COCCNC(=O)c1ccc(-c2ccc3nc(C(C(=O)NCC(=O)NC4CC4)S(=O)(=O)c4ccccc4)sc3c2)cc1 (stereo not shown) [Example 431, 4-{2-[(benzenesulfonyl) ({[(cyclopropyl-carbamoyl)methyl]carbamoyl})methyl]-1,3-benzothiazol-6-yl}-N-(2-methoxyethyl) benzamide]	3
Cc1cnn(-c2cccc(-c3ccc4nc(C(C(=O)NCC(=O)NC5CC5)S(C)(=O)=O)sc4c3)n2)c1 (stereo not shown) [Example 413, N-[(cyclopropyl-carbamoyl)methyl]-2-methanesulfonyl-2-{6-[6-(4-methyl-1H-pyrazol-1-yl)pyridin-2-yl]-1,3-benzothiazol-2-yl}acetamide]	7
CC(C)S(=O)(=O)C(C(=O)NCC(=O)NC1CC1)c1nc2cc(F)c(-c3ccc4cnn(C)c4c3)cc2s1 (stereo not shown) [Example 237, N-[(cyclopropyl-carbamoyl)methyl]-2-[5-fluoro-6-(1-methyl-1H-indazol-6-yl)-1,3-benzothiazol-2-yl]-2-(propane-2-sulfonyl) acetamide]	5
O=C(CNC(=O)C(c1nc2cc(F)c(-c3ccn(Cc4ccccc4)c(=O)c3)cc2s1)S(=O)(=O)CCC(F)(F)F)NC1CC1 (stereo not shown) [Example 136, 2-[6-(1-benzyl-2-oxo-1,2-dihydropyridin-4-yl)-5-fluoro-1,3-benzothiazol-2-yl]-N-[(cyclopropyl-carbamoyl)methyl]-2-(3,3,3-trifluoropropane-sulfonyl) acetamide]	6
COCCS(=O)(=O)C(C(=O)NCC(=O)NC1CC1)c1nc2cc(-c3cnc(C)nc3)c(C)cc2s1 (stereo not shown) [Example 184, N-[(cyclopropyl-carbamoyl)methyl]-2-(2-methoxyethane-sulfonyl)-2-[6-methyl-5-(2-methylpyrimidin-5-yl)-1,3-benzothiazol-2-yl]acetamide]	29
COc1ccc(-c2cc3nc(C(C(=O)NCC(=O)NC4CC4)S(C)(=O)=O)sc3cc2F)cn1 (stereo not shown) [Example 366, N-[(cyclopropyl-carbamoyl)methyl]-2-[6-fluoro-5-(6-methoxypyridin-3-yl)-1,3-benzothiazol-2-yl]-2-methanesulfonyl-acetamide]	30
COCCS(=O)(=O)C(C(=O)NCC(=O)NC1CC1)c1nc2cc(F)c(-c3cccc(F)n3)cc2s1 (stereo not shown) [Example 181, N-[(cyclopropyl-carbamoyl)methyl]-2-[5-fluoro-6-(6-fluoropyridin-2-yl)-1,3-benzothiazol-2-yl]-2-(2-methoxyethane-sulfonyl) acetamide]	143
COCCNC(=O)c1ccc(-c2cc3sc(C(C(=O)NCC(=O)NC4CC4)S(=O)(=O)CCOC)nc3cc2Cl)cc1 (stereo not shown) [Example 99, 4-[5-chloro-2-({[(cyclopropyl-carbamoyl)methyl]carbamoyl}(2-methoxyethane-sulfonyl)methyl)-1,3-benzothiazol-6-yl]-N-(2-methoxyethyl) benzamide]	8
COCCS(=O)(=O)C(C(=O)NCC(=O)NC1CC1)c1nc2cc(-c3ccc(F)cn3)ccc2s1 (stereo not shown) [Example 90, N-[(cyclopropyl-carbamoyl)methyl]-2-[5-(5-fluoropyridin-2-yl)-1,3-benzothiazol-2-yl]-2-(2-methoxyethane-sulfonyl) acetamide]	274
CS(=O)(=O)C(C(=O)NCC(=O)NC1CC1)c1nc2c(Cl)cc(-c3ccc(F)nc3)cc2s1 (stereo not shown) [Example 121, 2-[4-chloro-6-(6-fluoropyridin-3-yl)-1,3-benzothiazol-2-yl]-N-[(cyclopropyl-carbamoyl)methyl]-2-methanesulfonyl-acetamide]	14

same assay, conditions: EL from conditioned media of HT-1080 cells; 30 min preincubation at 37° C.

IC50 [nM]	SMILES
0.5	COCCS(=O)(=O)C(C(=O)NCC(=O)NC1CC1)c1nc2cc(F)c(-c3ccc(NC(=O)OCC4CC4)cc3)cc2s1 (stereo not shown) [Example 525, Cyclopropylmethyl N-{4-[2-({[(cyclopropylcarbamoyl)methyl]carbamoyl}(2-methoxyethanesulfonyl)methyl)-5-fluoro-1,3-benzothiazol-6-yl]phenyl}carbamate]

Source: patent US10173991B2, “Sulfone amide linked benzothiazole inhibitors of endothelial lipase” (BRISTOL-MYERS SQUIBB COMPANY, priority 2014, dated 2019)
